Laboratory results: patent US7932246B2, “Histone deacetylase inhibitors” (Chroma Therapeutics Ltd., priority 2005, dated 2011)

Tests used:
HUT = HUT cell inhibition assay (WST-1 cell viability); type: cell-based; details: HUT cells, 72-96 h, WST-1 assay, IC50 range
In short: (§1)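 Cells seeded at 1000-2000/well, grown 24 h, then treated for 72-96 h with 8 concentrations (top 10 μM, 3-fold, 6 replicates). Viability by WST-1; inhibition relative to DMSO, IC50 by sigmoidal variable-slope fit.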

[1] = target: histone deacetylase activity (HeLa nuclear extract); assay: HDAC fluorescent activity assay (Biomol, Fluor de Lys substrate); type: biochemical; details: IC50 range
In short: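 HeLa nuclear extract served as the deacetylase source for the acetyl-lysine Fluor de Lys substrate, with or without inhibitor. Developer converts deacetylated substrate to a fluorophore.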

U937 = U937 cell inhibition assay (WST-1 cell viability); type: cell-based; details: Homo sapiens, U-937; U937 cells, 72-96 h, WST-1 assay, IC50 range
In short: as §1

HeLa cells = assay: HeLa cell inhibition assay (SRB cell viability); type: cell-based; details: Homo sapiens, HeLa, 72 h, IC50 range
In short: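 Log-phase cells seeded at 1000 cells/well, grown 24 h, then exposed to compound (final 20 μM top concentration) for 72 h. Viability by sulphorhodamine B staining, % inhibition relative to DMSO control. IC50 from 8-point sigmoidal variable-slope fit.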

IC50 [1] [nM]	IC50 (U937) [nM]	IC50 (HeLa cells) [nM]	SMILES	IC50 (HUT) [nM]
< 100	331 to 3300	331 to 3300	O=C(NO)c1cnc(N2CC3C(C2)C3N2CCc3ccccc3C2)nc1 (centres unmarked) [Example 66, N-Hydroxy 2-[6-(3,4-dihydroisoquinolin-2(1H)-yl)-3-azabicyclo[3.1.0]hex-3-yl]pyrimidine-5-carboxamide]	331 to 3300
< 100	< 330	< 330	O=C(NO)c1cnc(N2CC3CN(Cc4ccc5ccccc5c4)CC3C2)nc1 (centres unmarked) [Example 79, N-Hydroxy 2-(5-naphthalen-2-ylmethylhexahydropyrrolo[3,4-c]pyrrol-2(1H)-yl)pyrimidine-5-carboxamide]	< 330
< 100	331 to 3300	< 330	COc1ccc2c(c1)CCC2N1CC2CN(c3ncc(C(=O)NO)cn3)CC2C1 (centres unmarked) [Example 80, N-Hydroxy 2-[5-(5-methoxyindan-1-yl)hexahydropyrrolo[3,4-c]pyrrol-2(1H)-yl]pyrimidine-5-carboxamide]	< 330
< 100	331 to 3300	331 to 3300	O=C(NO)c1cnc(N2CC3C(C2)C3NCc2ccc(C(F)(F)F)cc2)nc1 (centres unmarked) [Example 42]	< 330
< 100	331 to 3300	331 to 3300	COc1ccc(CN2CC3CN(c4ncc(C(=O)NO)cn4)CC3C2)cc1 (centres unmarked) [Example 84, N-Hydroxy 2-[5-(4-methoxybenzyl)hexahydropyrrolo[3,4-c]pyrrol-2(1H)-yl]pyrimidine-5-carboxamide]	< 330
< 100	331 to 3300	331 to 3300	O=C(NO)c1cnc(N2CC3C(C2)C3NC(=O)c2ccc3occc3c2)nc1 (centres unmarked) [Example 16, N-Hydroxy 2-{6-[(1-benzofuran-5-ylcarbonyl)amino]-3-azabicyclo[3.1.0]hex-3-yl}pyrimidine-5-carboxamide]	< 330
< 100	< 330	< 330	O=C(NO)c1cnc(N2CC3C(C2)C3N(CCN2CCOCC2)S(=O)(=O)c2ccc3ccccc3c2)nc1 (centres unmarked) [Example 51]	< 330
101 to 1000	331 to 3300	331 to 3300	O=C(NO)c1cnc(N2CC3C(CNCc4ccc5cc(F)ccc5n4)C3C2)nc1 (centres unmarked) [Example 75, N-Hydroxy 2-(6-{[(6-fluoroquinolin-2-ylmethyl)amino]methyl}-3-aza-bicyclo[3.1.0]hex-3-yl)pyrimidine-5-carboxamide]	331 to 3300
< 100	331 to 3300	331 to 3300	O=C(NO)c1cnc(N2CC3CN(S(=O)(=O)c4ccc5ccccc5c4)CC3C2)nc1 (centres unmarked) [Example 76, N-Hydroxy 2-[5-(naphthalene-2-sulfonyl)hexahydro-pyrrolo[3,4-c]pyrrol-2(1H)-yl]pyrimidine-5-carboxamide]	< 330
< 100	< 330	331 to 3300	O=C(NO)c1cnc(N2CC3C(C2)C3NS(=O)(=O)c2cc(C(F)(F)F)cc(C(F)(F)F)c2)nc1 (centres unmarked) [Example 3, N-Hydroxy 2-(6-{[(3,5-bistrifluoromethylphenyl)sulfonyl]amino}-3-azabicyclo[3.1.0]hex-3-1/1)pyrimidine-5-carboxamide]	< 330
< 100	< 330	< 330	O=C(NO)c1cnc(N2CC3C(C2)C3NCc2cccc(-c3ccccc3)c2)nc1 (centres unmarked) [Example 37, N-Hydroxy 2-{6-[(biphenyl-3-ylmethyl)-amino]-3-aza-bicyclo[3.1.0]hex-3-yl}pyrimidine-5-carboxamide]	< 330
< 100	331 to 3300	331 to 3300	O=C(NO)c1cnc(N2CC3C(C2)C3N(CCO)S(=O)(=O)c2ccc3ccccc3c2)nc1 (centres unmarked) [Example 49, N-Hydroxy 2-{6-[(2-hydroxyethyl)(naphthalene-2-sulfonyl)amino]-3-azabicyclo[3.1.0]hex-3-yl}pyrimidine-5-carboxamide]	331 to 3300
< 100	331 to 3300	331 to 3300	O=C(NO)c1cnc(N2CC3C(C2)C3N(CCN2CCCC2=O)S(=O)(=O)c2ccc3ccccc3c2)nc1 (centres unmarked) [Example 48, N-Hydroxy 2-(6-{(naphthalene-2-sulfonyl)-[2-(2-oxopyrrolidin-1-yl)ethyl]amino}-3-aza-bicyclo[3.1.0]hex-3-yl)pyrimidine-5-carboxamide]	331 to 3300
< 100	331 to 3300	331 to 3300	O=C(NO)c1cnc(N2CC3C(C2)C3NC(c2ccccc2)C(F)(F)F)nc1 (centres unmarked) [Example 40, N-Hydroxy 2-{6-[(2,2,2-trifluoro-1-phenylethyl)amino]-3-azabicyclo[3.1.0]hex-3-yl}pyrimidine-5-carboxamide]	< 330
< 100	331 to 3300	> 3300	O=C(NO)c1cnc(N2CC3C(C2)C3N(CCN2CCCC2=O)S(=O)(=O)c2ccc(OC(F)(F)F)cc2)nc1 (centres unmarked) [Example 55, N-Hydroxy 2-{6-[[2-(2-oxopyrrolidin-1-yl)ethyl]-(4-trifluoromethoxybenzenesulfonyl)amino]-3-aza-bicyclo[3.1.0]hex-3-yl}pyrimidine-5-carboxamide]	331 to 3300
101 to 1000	331 to 3300	331 to 3300	O=C(NO)c1ccc(N2CC3C(C2)C3NCc2ccc3ccccc3c2)cc1 (centres unmarked) [Example 88, N-Hydroxy 4-{6-[(naphthalen-2-ylmethyl)-amino]-3-azabicyclo[3.1.0]hex-3-yl}-benzamide]	331 to 3300
< 100	< 330	< 330	O=C(NO)c1cnc(N2CC3C(C2)C3NCc2ccc(-c3ccccc3)cc2)nc1 (centres unmarked) [Example 27, N-Hydroxy 2-{6-[(biphenyl-4-ylmethyl)-amino]-3-aza-bicyclo[3.1.0]hex-3-yl}pyrimidine-5-carboxamide]	< 330
< 100	> 3300	> 3300	O=C(Cc1ccc(N2CCCS2(=O)=O)cc1)NC1C2CN(c3ncc(C(=O)NO)cn3)CC21 (centres unmarked) [Example 6, N-Hydroxy 2-(6-{2-[4-(1,1-dioxoisothiazolidin-2-yl)phenyl]acetylamino}-3-azabicyclo[3.1.0]hex-3-yl)pyrimidine-5-carboxamide]	> 3300
< 100	331 to 3300	331 to 3300	O=C(NO)c1cnc(N2CC3C(CNCc4ccc5ccccc5c4)C3C2)nc1 (centres unmarked) [Example 71, N-Hydroxy 2-{6-[(naphthalen-2-ylmethylamino)methyl]-3-azabicyclo[3.1.0]hex-3-yl}pyrimidine-5-carboxamide]	< 330
< 100	< 330	331 to 3300	O=C(NO)c1cnc(N2CC3C(C2)C3NCc2ccc3ccccc3c2)nc1 (centres unmarked) [Example 20, N-Hydroxy 2-{6-[(2-naphthylmethyl)amino]-3-azabicyclo[3.1.0]hex-3-yl}pyrimidine-5-carboxamide]	< 330
101 to 1000	331 to 3300	> 3300	O=C(NO)c1cnc(N2CCC3(CC2)CCN(S(=O)(=O)c2ccc4ccccc4c2)CC3)nc1 [Example 86, N-Hydroxy 2-[9-(naphthalene-2-sulfonyl)-3,9-diaza-spiro[5.5]undec-3-yl]pyrimidine-5-carboxamide]	331 to 3300
< 100	< 330	331 to 3300	O=C(NO)c1cnc(N2CC3C(C2)C3NCc2ccc(OC(F)(F)F)cc2)nc1 (centres unmarked) [Example 34, N-Hydroxy 2-{6-[(4-trifluoromethoxybenzyl)amino]-3-azabicyclo[3.1.0]hex-3-yl}pyrimidine-5-carboxamide]	< 330

SMILES	IC50 [1] [nM]	IC50 (U937) [nM]	IC50 (HeLa cells) [nM]	IC50 (HUT) [nM]
O=C(NO)c1cnc(N2CC3C(C2)C3N2CCCCC2)nc1 (centres unmarked) [Example 63, N-Hydroxy 2-(6-piperidin-1-yl-3-azabicyclo[3.1.0]hex-3-yl)pyrimidine-5-carboxamide]	101 to 1000	> 3300	> 3300	331 to 3300
